# System: MDA MB 231 cells
# Test: Antiproliferation assay in MDA MB 231 cells (Cell Titer Glo)
# Type: cell-based
# Conditions: Homo sapiens, MDA-MB-231, 216 h, MDAMB231 cell line, 9 day treatment
# Description: Antiproliferation Assay in MDA MB 231 Cells MDA MB 231 cells were seeded in 96 well plate at a seeding density of 250 cells/well. The cells were allowed to settle overnight under standard incubator conditions (37° C., 5% CO2). Next day treatment with increasing dose of test compounds and reference compounds were done to the respective wells and the cells were further incubated under standard cell culture conditions for another 4 days. On the 5th day, media was replenished with fresh treatment and cells were incubated for a total of 9 day treatment period. On the day of termination, appropriate volume of Cell Titer Glo reagent was added to the treatment (and control) wells and the plates were kept on a plate shaker @300 RPM for 15 min. Luminiscence reading (RLU) was […] RLU is directly proportional to ATP content and is directly related to number of metabolically active cells in the respective well. Calculation: a. Blank Correction: RLU of the Wells Containing No Cells is Considered as Blank and Subtracted from all RLU of the Treated and Control Wells [formula]
# [1] = separated enantiomers A/B (Table 3)
SMILES,inhibition at 10 µM (racemic compounds (Table 2)),inhibition at 10 µM [1]
"CCC(=O)N1N=C(c2c(C)c3ccsc3[nH]c2=O)CC1c1ccc(C)cc1F (racemic) [Example 66, 5-(5-(2-fluoro-4-methylphenyl)-1-propionyl-4,5-dihydro-1H-pyrazol-3-yl)-4-methylthieno[2,3-b]pyridin-6(7H)-one]",≥ 50%,–
"CCC(=O)N1N=C(c2c(C)c3ccsc3[nH]c2=O)CC1c1ccc(C)cc1 (racemic) [Example 37, 4-methyl-5-(1-propionyl-5-(p-tolyl)-4,5-dihydro-1H-pyrazol-3-yl)thieno[2,3-b]pyridin-6(7H)-one]",≥ 50%,–
"CCC(=O)N1N=C(c2c(C)c3ccccc3[nH]c2=O)CC1c1ccc(OC)cc1 (centres unmarked) [Example 11, 3-(5-(4-Methoxyphenyl)-1-propionyl-4,5-dihydro-1H-pyrazol-3-yl)-4-methylquinolin-2(1H)-one]",≥ 50%,–
"CCC(=O)N1N=C(c2c(C)c3ccsc3[nH]c2=O)CC1c1ccc(C)nc1 (single isomer, unassigned) [Example 45B]",–,≥ 50%
"Cc1ccc(C2CC(c3c(C)c4ccsc4[nH]c3=O)=NN2C(=O)C(C)C)cc1 (centres unmarked) [Example 63, 5-(1-isobutyryl-5-(p-tolyl)-4,5-dihydro-1H-pyrazol-3-yl)-4-methyl-7,7a-dihydrothieno[2,3-b]pyridin-6(7H)-one]",≥ 50%,–
"CCC(=O)N1N=C(c2c(C)c3cc(Cl)ccc3n(C)c2=O)CC1c1ccc(OC)cc1 (centres unmarked) [Example 18, 6-chloro-3-(5-(4-methoxyphenyl)-1-propionyl-4,5-dihydro-1H-pyrazol-3-yl)-1,4-dimethylquinolin-2(1H)-one]",< 50%,–
"CCC(=O)N1N=C(c2c(C)c3ccc(OCCOC)nc3[nH]c2=O)CC1c1ccc(C)cc1 (centres unmarked) [Example 87, 7-(2-methoxyethoxy)-4-methyl-3-(1-propionyl-5-(p-tolyl)-4,5-dihydro-1H-pyrazol-3-yl)-1,8-naphthyridin-2(1H)-one]",≥ 50%,–
"CCC(=O)N1N=C(c2c(C)c3cc(Cl)ccc3[nH]c2=O)CC1c1cn(C)c2ccccc12 (centres unmarked) [Example 24, 6-chloro-4-methyl-3-(5-(1-methyl-1H-indol-3-yl)-1-propionyl-4,5-dihydro-1H-pyrazol-3-yl)quinolin-2(1H)-one]",≥ 50%,–
"CCC(=O)N1N=C(c2c(C)c3ccsc3[nH]c2=O)CC1c1ccc(=O)[nH]c1 (centres unmarked) [Example 26, 4-methyl-5-(5-(6-oxo-1,6-dihydropyridin-3-yl)-1-propionyl-4,5-dihydro-1H-pyrazol-3-yl)thieno[2,3-b]pyridin-6(7H)-one]",< 50%,–
"CCC(=O)N1N=C(c2c(C)c3ccsc3[nH]c2=O)CC1c1cnc(C)nc1 (centres unmarked) [Example 51, 4-methyl-5-(5-(2-methylpyrimidin-5-yl)-1-propionyl-4,5-dihydro-1H-pyrazol-3-yl)thieno[2,3-b]pyridin-6(7H)-one]",< 50%,–
"CCC(=O)N1N=C(c2c(C)c3ccsc3[nH]c2=O)CC1c1cnc(C)s1 (centres unmarked) [Example 57, 4-methyl-5-(5-(2-methylthiazol-5-yl)-1-propionyl-4,5-dihydro-1H-pyrazol-3-yl)thieno[2,3-b]pyridin-6(7H)-one]",≥ 50%,–
"CCC(=O)N1N=C(c2c(C)c3ccsc3[nH]c2=O)CC1c1ccc(OC)cc1 (single isomer, unassigned) [Example 20A]",–,≥ 50%
"CCC(=O)N1N=C(c2c(C)c3ccc(N4CCOCC4)nc3[nH]c2=O)CC1c1ccc(C)cc1 (centres unmarked) [Example 86, 4-methyl-7-morpholino-3-(1-propionyl-5-(p-tolyl)-4,5-dihydro-1H-pyrazol-3-yl)-1,8-naphthyridin-2(1H)-one]",< 50%,–
"CCC(=O)N1N=C(c2c(C)c3ccsc3[nH]c2=O)CC1c1ccc(OC)s1 (centres unmarked) [Example 29, 5-(5-(5-methoxythiophen-2-yl)-1-propionyl-4,5-dihydro-1H-pyrazol-3-yl)-4-methylthieno[2,3-b]pyridin-6(7H)-one]",≥ 50%,–
"CCC(=O)N1N=C(c2c(C)c3ccsc3[nH]c2=O)CC1c1csc(Br)c1 (centres unmarked) [Example 31, 5-(5-(5-bromothiophen-3-yl)-1-propionyl-4,5-dihydro-1H-pyrazol-3-yl)-4-methylthieno[2,3-b]pyridin-6(7H)-one]",< 50%,–
"CCC(=O)N1N=C(c2c(C)c3cc(Cl)ccc3[nH]c2=O)CC1c1ccc(OC)cc1 (centres unmarked) [Example 1, 6-Chloro-3-(5-(4-methoxyphenyl)-1-propionyl-4,5-dihydro-1H-pyrazol-3-yl)-4-methylquinolin-2(1H)-one]",≥ 50%,–
"CCC(=O)Nc1ccc(C2CC(c3c(C)c4cc(Cl)ccc4[nH]c3=O)=NN2C(=O)CC)cc1 (centres unmarked) [Example 8, N-(4-(3-(6-chloro-4-methyl-2-oxo-1,2-dihydroquinolin-3-yl)-1-propionyl-4,5-dihydro-1H-pyrazol-5-yl)phenyl)propionamide]",≥ 50%,–
"CCC(=O)N1N=C(c2c(C)c3c(C)cccc3[nH]c2=O)CC1c1ccc(C)cc1 (centres unmarked) [Example 76, 4,5-dimethyl-3-(1-propionyl-5-(p-tolyl)-4,5-dihydro-1H-pyrazol-3-yl)quinolin-2(1H)-one]",≥ 50%,–
"CCC(=O)N1N=C(c2c(C)c3ccccc3[nH]c2=O)C[C@@H]1c1ccc(C)cc1 (stereo in doubt) [Example 60A, rel-(R)-4-methyl-3-(1-propionyl-5-(p-tolyl)-4,5-dihydro-1H-pyrazol-3-yl)quinolin-2-(1H)-one]",–,≥ 50%
"CCC(=O)N1N=C(c2c(C)c3cncnc3[nH]c2=O)CC1c1ccc(OC)cc1 (centres unmarked) [Example 14, 6-(5-(4-Methoxyphenyl)-1-propionyl-4,5-dihydro-1H-pyrazol-3-yl)-5-methylpyrido-[2,3-d]pyrimidin-7(8H)-one]",< 50%,–
"CCC(=O)N1N=C(c2c(C)c3cc(Cl)sc3[nH]c2=O)CC1c1ccc(C)cc1 (centres unmarked) [Example 72, 2-chloro-4-methyl-5-(1-propionyl-5-(p-tolyl)-4,5-dihydro-1H-pyrazol-3-yl)thieno[2,3-b]pyridin-6(7H)-one]",≥ 50%,–
"CCC(=O)N1N=C(c2c(C)c3ccc(C)nc3[nH]c2=O)CC1c1ccc(C)cc1 (centres unmarked) [Example 84, 4,7-dimethyl-3-(1-propionyl-5-(p-tolyl)-4,5-dihydro-1H-pyrazol-3-yl)-1,8-naphthyridin-2(1H)-one]",≥ 50%,–
"CCC(=O)N1N=C(c2c(C)c3nc(Cl)ccc3[nH]c2=O)CC1c1ccc(C)cc1 (centres unmarked) [Example 61, 6-chloro-4-methyl-3-(1-propionyl-5-(p-tolyl)-4,5-dihydro-1H-pyrazol-3-yl)-1,5-naphthyridin-2(1H)-one]",≥ 50%,–
"CCC(=O)N1N=C(c2c(C)c3cc(Cl)ccc3[nH]c2=O)CC1c1ccc2ccn(C)c2c1 (centres unmarked) [Example 6, 6-Chloro-4-methyl-3-(5-(1-methyl-1H-indol-6-yl)-1-propionyl-4,5-dihydro-1H-pyrazol-3-yl)quinolin-2(1H)-one]",≥ 50%,–
"CCC(=O)N1N=C(c2c(C)c3nc(Cl)ccc3[nH]c2=O)CC1c1ccc(OC)cc1 (centres unmarked) [Example 16, 6-chloro-3-(5-(4-methoxyphenyl)-1-propionyl-4,5-dihydro-1H-pyrazol-3-yl)-4-methyl-1,5-naphthyridin-2(1H)-one]",≥ 50%,–
"CCC(=O)N1N=C(c2cc3ccsc3[nH]c2=O)CC1c1ccc(OC)cc1 (centres unmarked) [Example 22, 5-(5-(4-methoxyphenyl)-1-propionyl-4,5-dihydro-1H-pyrazol-3-yl)thieno[2,3-b]pyridin-6(7H)-one]",≥ 50%,–

# Reference: patent US20250145601A1, “NOVEL BICYCLIC COMPOUNDS AS RAD51 INHIBITORS” (SATYA THERAPEUTICS, INC., priority 2022, published 2025)
